Test [1] has as its system TYK2 pseudokinase (JH2); IL-23-stimulated HEK-Blue IL-23 cells. The test can be described thus: HEK-Blue IL-23 reporter assay (STAT3-inducible SEAP) for profiling TYK2 pseudokinase (JH2) inhibition. It is filed as cell-based. The settings on record: 10 ng/mL human recombinant IL-23, SEAP readout, read-out: IL23 (TYK2 inhibitory activity, IC50). The method, boiled down:
(§1)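 Pretreatment with diluted compound lasted 60 min, after which IL-23 (10 ng/mL) or IFNα (1 ng/mL), both human recombinant, drove STAT3 or STAT1 reporter activity for 22-24 h or 16-18 h respectively. QUANTI-Blue detected the secreted phosphatase.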

Test [2] deals with TYK2 pseudokinase (JH2); IFNα-stimulated HEK-Blue IFNα/β cells. The test can be described thus: HEK-Blue IFNα/β reporter assay (STAT1-inducible SEAP) for profiling TYK2 pseudokinase (JH2) inhibition. It is filed as cell-based. The settings on record: 1 ng/mL human recombinant IFNα, SEAP readout, read-out: IFNα (TYK2 inhibitory activity, IC50). The method, boiled down:
as §1

The target of the next test is T1, TYK2 kinase domain (JH1) (Homo sapiens, UniProt P29597).
T1 construct: recombinant purified His or GST-tagged catalytic domain for each enzyme; made in house
T1 sequence (P29597 897-1176 limits assumed): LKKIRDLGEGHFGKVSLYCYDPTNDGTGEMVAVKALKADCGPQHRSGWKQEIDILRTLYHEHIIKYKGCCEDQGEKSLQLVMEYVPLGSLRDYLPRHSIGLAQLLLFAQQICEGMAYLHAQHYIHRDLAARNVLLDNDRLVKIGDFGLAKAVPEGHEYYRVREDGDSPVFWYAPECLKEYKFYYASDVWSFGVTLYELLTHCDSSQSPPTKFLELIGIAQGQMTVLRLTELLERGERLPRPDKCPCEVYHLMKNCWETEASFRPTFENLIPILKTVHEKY
Briefly: HTRF-based selectivity assay, TYK2 catalytic domain. In kind it is biochemical. The following applies: 20 μM ATP. As to the method: (§2) Example B-2: HTRF-Based Selectivity Assay
(§3) The ability of compounds to inhibit the activity of JAK1, JAK2, JAK3 and TYK2 is measured using a recombinant purified His or GST-tagged catalytic domain for each enzyme (JAK1, JAK2 and TYK2 are generated in-house; JAK3 was purchased from Carna biosciences, Cat #08-046) in an HTRF format biochemical assay. The reactions employs a commercial peptide substrate from Cisbio (Cat #62TK0PEC). The basic assay protocol is as follows: first, 2.5 μL of diluted compounds (4×) in DMSO are dispensed into a 384-well Optiplate. Next, 2.5 μL of enzyme (final concentrations for enzymes are: TYK2—700 ng/mL, JAK1—80.6 ng/mL, JAK2—2.1 ng/mL and JAK3—171.8 ng/mL) is added and incubated at RT for 5-20 min. Finally, 5 μl of mixture of 2×ATP [Final concentration 20 μM for TYK2, 21.43 μM for JAK1, 14.7 μM for JAK2 and 2.12 μM for JAK3]+2× Substrate [Final concentration 217 nM for TYK2, 454.7 nM for JAK1, 200 nM for JAK2 and 257.4 nM for JAK3] is added to 384 well Optiplate. Composition of Kinase assay buffer used in the assay is as follows: HEPES 50 mM, EGTA 1 mM, MgCl2 10 mM, DTT 2 mM, Tween-20 0.01% and water. Then the plates are shaken and then incubated at 26.5° C. for 60 min.

The target of a further test is T2, JAK1 kinase domain (JH1) (Homo sapiens, UniProt P23458).
T2 construct: recombinant purified His or GST-tagged catalytic domain for each enzyme; made in house
T2 sequence (P23458 875-1153 limits assumed): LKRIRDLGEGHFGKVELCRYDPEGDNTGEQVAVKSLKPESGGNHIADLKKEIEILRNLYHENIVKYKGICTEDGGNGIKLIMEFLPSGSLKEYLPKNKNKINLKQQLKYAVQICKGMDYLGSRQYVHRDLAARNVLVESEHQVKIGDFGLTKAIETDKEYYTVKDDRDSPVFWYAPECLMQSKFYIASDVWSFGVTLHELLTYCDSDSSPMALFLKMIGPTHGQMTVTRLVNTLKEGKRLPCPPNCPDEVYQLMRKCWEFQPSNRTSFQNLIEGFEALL
The test can be described thus: HTRF-based selectivity assay, JAK1 catalytic domain. It is filed as biochemical. The settings on record: 21.43 μM ATP, read-out: JAK-JHI (IC50). How it is done: as §2, §3

The target of the next test is T3, JAK2 kinase domain (JH1) (Homo sapiens, UniProt O60674).
T3 construct: recombinant purified His or GST-tagged catalytic domain for each enzyme; made in house
T3 sequence (O60674 849-1124 limits assumed): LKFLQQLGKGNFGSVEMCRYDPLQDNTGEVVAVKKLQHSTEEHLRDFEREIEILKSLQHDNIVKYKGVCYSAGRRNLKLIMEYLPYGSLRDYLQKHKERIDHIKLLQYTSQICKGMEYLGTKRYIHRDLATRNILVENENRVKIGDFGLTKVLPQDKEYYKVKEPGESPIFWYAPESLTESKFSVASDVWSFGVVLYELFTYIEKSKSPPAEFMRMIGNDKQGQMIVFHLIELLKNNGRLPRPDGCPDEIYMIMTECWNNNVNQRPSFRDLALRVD
The test can be described thus: HTRF-based selectivity assay, JAK2 catalytic domain. It is filed as biochemical. The following applies: 14.7 μM ATP. How it is done: as §2, §3

In the next test the target is T4, JAK3 kinase domain (JH1) (Homo sapiens, UniProt P52333).
T4 construct: recombinant purified His or GST-tagged catalytic domain for each enzyme; purchased Carna biosciences 08-046
T4 sequence (P52333 822-1111 limits assumed): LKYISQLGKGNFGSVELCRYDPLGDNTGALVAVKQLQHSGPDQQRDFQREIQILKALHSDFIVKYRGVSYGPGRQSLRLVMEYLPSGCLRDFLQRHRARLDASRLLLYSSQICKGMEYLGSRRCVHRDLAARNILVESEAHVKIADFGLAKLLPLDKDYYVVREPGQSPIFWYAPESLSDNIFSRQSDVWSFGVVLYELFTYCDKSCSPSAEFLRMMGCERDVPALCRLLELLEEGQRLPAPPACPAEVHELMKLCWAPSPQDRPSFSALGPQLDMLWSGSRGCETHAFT
Briefly: HTRF-based selectivity assay, JAK3 catalytic domain. It is filed as biochemical. The settings on record: 2.12 μM ATP. How it is done:
as §2, §3

The subject of test [3] is IL-2-stimulated HEK-Blue IL-2 reporter cells. Briefly: HEK-Blue IL-2 reporter assay (STAT5-inducible SEAP) for determining selectivity. The settings on record: 4 ng/mL human recombinant IL-2, 24 hours. In kind it is cell-based. The method in brief: (§4)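 Cells were plated for 20-22 h, then pretreated with serially diluted compound for 60 min. They were stimulated for 24 h with 4 ng/mL human recombinant IL-2 or 50 ng/mL human recombinant IFNγ, and SEAP induction was read with QUANTI-Blue.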

Test [4] concerns IFNγ-stimulated HEK-Blue IFNγ reporter cells. The test can be described thus: HEK-Blue IFNγ reporter assay (STAT1-inducible SEAP) for determining selectivity. It is filed as cell-based. The following applies: 50 ng/mL human recombinant IFNγ, 24 hours, read-out: IFN-γ SEAP selectivity assay IC50. The method in brief: as §4

Take `CNC(=O)c1nnc(NC(=O)C2CC2)cc1Nc1cccc2c1OCc1cn(C)nc1-2` [Compound 2, 6-(cyclopropanecarboxamido)-N-methyl-4-((2-methyl-2,4-dihydrochromeno [4,3-c]pyrazol-6-yl)amino)pyridazine-3-carboxamide]: the IC50 in test [1] is 30 to 300 nM; in test [2], 300 to 1000 nM; against TYK2 kinase domain (JH1) it was greater than 1000 nM; on JAK1 kinase domain (JH1) it was greater than 1000 nM; at JAK2 kinase domain (JH1), greater than 1000 nM; on JAK3 kinase domain (JH1), greater than 1000 nM. Moreover, the IC50 in test [3] was greater than 1000 nM; in test [4], 300 to 1000 nM.
With `[2H]C([2H])([2H])NC(=O)c1nnc(Nc2ccc(F)cn2)cc1Nc1cccc2c1OCc1cn(C)nc1-2` [Compound 5, 6-((5-fluoropyridin-2-yl)amino)-N-(methyl-d3)-4-((2-methyl-2,4-dihydrochromeno[4,3-c]pyrazol-6-yl)amino)pyridazine-3-carboxamide], the IC50 is less than 30 nM in test [1]; 30 to 300 nM in test [2]; greater than 1000 nM against TYK2 kinase domain (JH1); greater than 1000 nM on JAK1 kinase domain (JH1); greater than 1000 nM at JAK2 kinase domain (JH1); greater than 1000 nM on JAK3 kinase domain (JH1). In addition, the IC50 in test [3] and in test [4] was greater than 1000 nM in each case.
In the case of `[2H]C([2H])([2H])NC(=O)c1cnc(NC(=O)C2CC2)cc1Nc1cccc2c1OCc1cn(C)nc1-2` [Compound 6, 6-(cyclopropanecarboxamido)-N-(methyl-d3)-4-((2-methyl-2,4-dihydrochromeno[4,3-c]pyrazol-6-yl)amino)nicotinamide], the IC50 in test [1] is 30 to 300 nM; in test [2], 30 to 300 nM; at TYK2 kinase domain (JH1), greater than 1000 nM; at JAK1 kinase domain (JH1), greater than 1000 nM; on JAK2 kinase domain (JH1), greater than 1000 nM; at JAK3 kinase domain (JH1) it was greater than 1000 nM. The IC50 in test [3] and in test [4] was greater than 1000 nM throughout.
With `[2H]C([2H])([2H])NC(=O)c1cnc(Nc2ccc(F)cn2)cc1Nc1cccc2c1OCc1cn(C)nc1-2` [Compound 7, 6-((5-fluoropyridin-2-yl)amino)-N-(methyl-d3)-4-((2-methyl-2,4-dihydrochromeno[4,3-c]pyrazol-6-yl)amino)nicotinamide], the IC50 in test [1] is 30 to 300 nM; in test [2], 300 to 1000 nM; at TYK2 kinase domain (JH1), greater than 1000 nM; at JAK1 kinase domain (JH1), greater than 1000 nM; at JAK2 kinase domain (JH1), greater than 1000 nM; at JAK3 kinase domain (JH1), greater than 1000 nM. In addition, the IC50 is greater than 1000 nM in test [3] and 300 to 1000 nM in test [4].
Take `Cn1cc2c(n1)-c1cccc(Nc3cc(Nc4ccc(F)cn4)nnc3C(N)=O)c1OC2` [Compound 8, 6-((5-fluoropyridin-2-yl)amino)-4-((2-methyl-2,4-dihydrochromeno[4,3-c]pyrazol-6-yl)amino)pyridazine-3-carboxamide]: the IC50 was less than 30 nM in test [1]; 30 to 300 nM in test [2]; greater than 1000 nM at TYK2 kinase domain (JH1); greater than 1000 nM at JAK1 kinase domain (JH1); 300 to 1000 nM against JAK2 kinase domain (JH1); greater than 1000 nM at JAK3 kinase domain (JH1). Also, the IC50 in test [3] is 300 to 1000 nM; in test [4], less than 30 nM.
For `[2H]C([2H])([2H])NC(=O)c1cnc(Nc2cc(C)nc(C)n2)cc1Nc1cccc2c1OCc1cn(C)nc1-2` [Compound 9, 6-((2,6-dimethylpyrimidin-4-yl)amino)-N-(methyl-d3)-4-((2-methyl-2,4-dihydrochromeno[4,3-c]pyrazol-6-yl)amino)nicotinamide], the IC50 is less than 30 nM in test [1]; 30 to 300 nM in test [2]; greater than 1000 nM against TYK2 kinase domain (JH1); greater than 1000 nM on JAK1 kinase domain (JH1); greater than 1000 nM on JAK2 kinase domain (JH1); greater than 1000 nM against JAK3 kinase domain (JH1). Moreover, the IC50 in test [3] was greater than 1000 nM; in test [4], 300 to 1000 nM.
`CNC(=O)c1nnc(Nc2ccc(F)cn2)cc1Nc1cccc2c1N(C)Cc1cn(C)nc1-2` [Compound 12, (4-((2,5-dimethyl-4,5-dihydro-2H-pyrazolo[4,3-c]quinolin-6-yl)amino)-6-((5-fluoropyridin-2-yl)amino)-N-methylpyridazine-3-carboxamide)]: the IC50 is less than 30 nM in test [1]; less than 30 nM in test [2]; greater than 1000 nM on TYK2 kinase domain (JH1); greater than 1000 nM on JAK1 kinase domain (JH1); greater than 1000 nM against JAK2 kinase domain (JH1); greater than 1000 nM at JAK3 kinase domain (JH1). Further, the IC50 was greater than 1000 nM in test [3] and 30 to 300 nM in test [4].
With `[2H]C([2H])([2H])NC(=O)c1cnc(Nc2ccc(F)cn2)cc1Nc1cccc2c1N(C)Cc1cn(C)nc1-2` [Compound 13, 4-((2,5-dimethyl-4,5-dihydro-2H-pyrazolo[4,3-c]quinolin-6-yl)amino)-6-((5-fluoropyridin-2-yl)amino)-N-(methyl-d3)nicotinamide], the half-maximal inhibitory concentration (IC50) in test [1] is less than 30 nM; in test [2] it was less than 30 nM; against TYK2 kinase domain (JH1), greater than 1000 nM; at JAK1 kinase domain (JH1) it was greater than 1000 nM; at JAK2 kinase domain (JH1), greater than 1000 nM; against JAK3 kinase domain (JH1), greater than 1000 nM. The figures for the IC50 in test [3] and in test [4] were greater than 1000 nM and 300 to 1000 nM, respectively.
Take `[2H]C([2H])([2H])NC(=O)c1cnc(NC(=O)C2CC2)cc1Nc1cccc2c1N(C)Cc1cn(C)nc1-2` [Compound 14, 6-(cyclopropanecarboxamido)-4-((2,5-dimethyl-4,5-dihydro-2H-pyrazolo[4,3-c]quinolin-6-yl)amino)-N-(methyl-d3)nicotinamide]: the IC50 in test [1] was less than 30 nM; in test [2], less than 30 nM; against TYK2 kinase domain (JH1), greater than 1000 nM; on JAK1 kinase domain (JH1) it was greater than 1000 nM; at JAK2 kinase domain (JH1), greater than 1000 nM; at JAK3 kinase domain (JH1), greater than 1000 nM. Also, the IC50 in test [3] is greater than 1000 nM; in test [4], 300 to 1000 nM.
Regarding `[2H]C([2H])([2H])NC(=O)c1nnc(NC(=O)C2CC2)cc1Nc1cccc2c1N(C)Cc1cn(C)nc1-2` [Compound 15, 6-(cyclopropanecarboxamido)-4-((2,5-dimethyl-4,5-dihydro-2H-pyrazolo[4,3-c]quinolin-6-yl)amino)-N-(methyl-d3)pyridazine-3-carboxamide], the IC50 is less than 30 nM in test [1]; less than 30 nM in test [2]; greater than 1000 nM against TYK2 kinase domain (JH1); greater than 1000 nM on JAK1 kinase domain (JH1); greater than 1000 nM against JAK2 kinase domain (JH1); greater than 1000 nM at JAK3 kinase domain (JH1). The IC50 in test [3] and in test [4] was greater than 1000 nM throughout.
`[2H]C([2H])([2H])NC(=O)c1cnc(Nc2cc(C)nc(C)n2)cc1Nc1cccc2c1N(C)Cc1cn(C)nc1-2` [Compound 16, 4-((2,5-dimethyl-4,5-dihydro-2H-pyrazolo[4,3-c]quinolin-6-yl)amino)-6-((2,6-dimethylpyrimidin-4-yl)amino)-N-(methyl-d3)nicotinamide]: the IC50 in test [1] was less than 30 nM; in test [2] it was less than 30 nM; against TYK2 kinase domain (JH1), greater than 1000 nM; at JAK1 kinase domain (JH1) it was greater than 1000 nM; against JAK2 kinase domain (JH1) it was greater than 1000 nM; against JAK3 kinase domain (JH1), greater than 1000 nM. Moreover, the IC50 was in the range of 300 to 1000 nM in test [3] and 30 to 300 nM in test [4].
On to `CN1Cc2cn(C)nc2-c2cccc(Nc3cc(NC(=O)C4CC4)ncc3C(N)=O)c21` [Compound 17, 6-(cyclopropanecarboxamido)-4-((2,5-dimethyl-4,5-dihydro-2H-pyrazolo[4,3-c]quinolin-6-yl)amino)nicotinamide], for which the IC50 in test [1] was less than 30 nM; in test [2], less than 30 nM; on TYK2 kinase domain (JH1) it was 30 to 300 nM; at JAK1 kinase domain (JH1) it was less than 30 nM; at JAK2 kinase domain (JH1), less than 30 nM; against JAK3 kinase domain (JH1), less than 30 nM. Further, the IC50 in test [3] and in test [4] was less than 30 nM each time.

These data come from US12122785B2, “Substituted pyridines, pyridazines, pyrimidines, and 1,2,4-triazines as TYK2 inhibitors” (Sudo Biosciences Limited, priority 2021, dated 2024).
